Assay results: US7186738B2, “Antibacterial oxalidinones” (AstraZeneca AB, priority 2003, dated 2007)
Values after ≈ are worked out from the molar mass of the structure shown. One block for each compound: values may come before it.

How the values were obtained:
MAO-A = target: T1, MAO-A (Homo sapiens, UniProt P21397); assay: MAO-A standard in-vitro assay, human liver enzyme expressed in yeast; type: biochemical; conditions: read-out: Ki value against MAO-A (converted)
T1 construct: made in house; host or cells: yeast
T1 sequence (P21397 1-527): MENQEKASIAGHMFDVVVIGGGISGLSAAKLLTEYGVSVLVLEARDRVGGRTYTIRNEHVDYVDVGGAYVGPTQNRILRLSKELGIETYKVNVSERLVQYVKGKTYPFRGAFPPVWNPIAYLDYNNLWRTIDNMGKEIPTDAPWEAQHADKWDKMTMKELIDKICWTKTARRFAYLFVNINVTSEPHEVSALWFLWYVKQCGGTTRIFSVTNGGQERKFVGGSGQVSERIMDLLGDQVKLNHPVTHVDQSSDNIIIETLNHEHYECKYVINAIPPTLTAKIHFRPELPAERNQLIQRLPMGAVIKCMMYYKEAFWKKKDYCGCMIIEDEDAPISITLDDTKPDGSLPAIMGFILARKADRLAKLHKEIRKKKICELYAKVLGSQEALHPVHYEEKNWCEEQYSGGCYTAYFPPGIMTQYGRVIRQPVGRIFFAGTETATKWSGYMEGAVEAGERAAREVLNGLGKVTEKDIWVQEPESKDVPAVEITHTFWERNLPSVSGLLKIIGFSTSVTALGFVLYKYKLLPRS
Protocol: The activity of the compounds of the invention against MAO-A was tested using a standard in-vitro assay based on human liver enzyme expressed in yeast as described in Biochem. Biophys. Res. Commun. 1991, 181, 1084–1088.

[1] = system: Staphylococcus aureus MRQR (methicillin resistant and quinolone resistant); assay: MIC by agar dilution, standard in-vitro test system; type: cell-based; conditions: inoculum 10^4 CFU/spot, 37° C., 24 hours
Protocol: (§1) The following results were obtained on a standard in-vitro test system. The activity is described in terms of the minimum inhibitory concentration (MIC) determined by the agar-dilution technique with an inoculum size of 10^4 CFU/spot. Typically, compounds are active in the range 0.01 to 256 μg/ml.
(§2) Staphylococci were tested on agar, using an inoculum of 10^4 CFU/spot and an incubation temperature of 37° C. for 24 hours—standard test conditions for the expression of methicillin resistance.

[2] = system: Staphylococcus aureus MSQS (methicillin sensitive and quinolone sensitive); assay: as above; type: cell-based; conditions: inoculum 10^4 CFU/spot, 37° C., 24 hours
Protocol: as §1, §2

Enterococcus faecium = assay: as above; type: cell-based; conditions: agar with 5% defibrinated horse blood, 10^4 CFU/spot, 37° C., 5% carbon dioxide, 48 hours
Protocol: as §1, with “μg/ml. Streptococci and enterococci were tested on agar supplemented with 5% defibrinated horse blood, an inoculum of 10^4 CFU/spot and an incubation temperature of 37° C. in an atmosphere of 5% carbon dioxide for 48 hours—blood is required for the growth of some of the test organisms.” for “μg/ml.”

Streptococcus pneumoniae = assay: as above; type: cell-based; conditions: agar with 5% defibrinated horse blood, 10^4 CFU/spot, 37° C., 5% carbon dioxide, 48 hours
Protocol: as §1, with “μg/ml. Streptococci and enterococci were tested on agar supplemented with 5% defibrinated horse blood, an inoculum of 10^4 CFU/spot and an incubation temperature of 37° C. in an atmosphere of 5% carbon dioxide for 48 hours—blood is required for the growth of some of the test organisms.” for “μg/ml.”

Moraxella catarrhalis = assay: as above; type: cell-based; conditions: inoculum 10^4 CFU/spot
Protocol: as §1

SMILES: CCOC(=O)c1cc(-c2ccc(N3C[C@H](Cn4ccnn4)OC3=O)cc2F)on1 [Example 2, Ethyl 5-{2-fluoro-4-[(5R)-2-oxo-5-(1H-1,2,3-triazol-1-ylmethyl)-1,3-oxazolidin-3-yl]phenyl}isoxazole-3-carboxylate]
Ki (MAO-A): 47.3 µM

SMILES: O=C1O[C@@H](Cn2ccnn2)CN1c1ccc(-c2c[nH]nn2)c(F)c1 [Example 7, (5R)-3-[3-Fluoro-4-(1H-1,2,3-triazol-4-yl)phenyl]-5-(1H-1,2,3-triazol-1-ylmethyl)-1,3-oxazolidin-2-one]
Ki (MAO-A): 437 µM

SMILES: Cc1cc(-c2ccc(N3C[C@H](Cn4ccnn4)OC3=O)cc2F)on1 [Example 1, (5R)-3-[3-Fluoro-4-(3-methylisoxazol-5-yl)phenyl]-5-(1H-1,2,3-triazol-1-ylmethyl)-1,3-oxazolidin-2-one]
MIC [1]: 1 µg/mL (≈ 2.91 µM)
MIC [2]: 0.5 µg/mL (≈ 1.46 µM)
MIC (Enterococcus faecium): 0.5 µg/mL (≈ 1.46 µM)
MIC (Streptococcus pneumoniae): 0.25 µg/mL (≈ 0.728 µM)
MIC (Moraxella catarrhalis): 1 µg/mL (≈ 2.91 µM)

More lines, now with the values ahead:

Ki (MAO-A): 106 µM
SMILES: CC(=O)NC[C@H]1CN(c2ccc(-c3c[nH]nn3)c(F)c2)C(=O)O1 [acetamide analogue of Example 7, reference compound]

Ki (MAO-A): 15.3 µM
SMILES: CCOC(=O)c1cc(-c2ccc(N3C[C@H](CNC(C)=O)OC3=O)cc2F)on1 [acetamide analogue of Example 2, reference compound]
